Experimental data published in PubChem BioAssay (NCI).
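Growth conditions: 96-well plates. Treatment: test compound, 48 hours, 5 concentrations. Analysis: linear interpolation between bracketing concentrations; unreached endpoints set to highest concentration. The concentration for 50% growth inhibition is given as GI50. TGI: concentration producing complete growth inhibition.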

Columns and labels:
Assay in all cases: inhibition of tumour cell growth, NCI panel, 48 h
SK-OV-3 ovarian = test system: SK-OV-3 ovarian
K-562 leukemia = test system: K-562 leukemia
UACC-257 melanoma = test system: UACC-257 melanoma
DU-145 prostate = test system: DU-145 prostate
HT29 colon = test system: HT29 colon
SN12C renal = test system: SN12C renal
A549 NSCLC = test system: A549 NSCLC
CCRF-CEM leukemia = test system: CCRF-CEM leukemia
786-0 renal = test system: 786-0 renal
NCI-H460 lung = test system: NCI-H460 lung
HCT-116 colon = test system: HCT-116 colon
EKVX NSCLC = test system: EKVX NSCLC
MOLT-4 leukemia = test system: MOLT-4 leukemia
OVCAR-4 ovarian = test system: OVCAR-4 ovarian
RXF 393 renal = test system: RXF 393 renal
UO-31 renal = test system: UO-31 renal
HOP-92 NSCLC = test system: HOP-92 NSCLC
HCC-2998 colon = test system: HCC-2998 colon
OVCAR-3 ovarian = test system: OVCAR-3 ovarian
SK-MEL-2 melanoma = test system: SK-MEL-2 melanoma
M14 melanoma = test system: M14 melanoma
UACC-62 melanoma = test system: UACC-62 melanoma
SF-268 CNS = test system: SF-268 CNS
SF-539 CNS = test system: SF-539 CNS
OVCAR-8 ovarian = test system: OVCAR-8 ovarian
PC-3 prostate = test system: PC-3 prostate
SF-295 CNS = test system: SF-295 CNS
NCI/ADR-RES ovarian = test system: NCI/ADR-RES ovarian
SNB-19 CNS = test system: SNB-19 CNS
HCT-15 colon = test system: HCT-15 colon
LOX IMVI melanoma = test system: LOX IMVI melanoma
HS 578T breast = test system: HS 578T breast
TK-10 renal = test system: TK-10 renal
IGROV1 ovarian = test system: IGROV1 ovarian
SK-MEL-28 melanoma = test system: SK-MEL-28 melanoma
COLO 205 colon = test system: COLO 205 colon
OVCAR-5 ovarian = test system: OVCAR-5 ovarian
SR leukemia = test system: SR leukemia
HL-60(TB) leukemia = test system: HL-60(TB) leukemia
NCI-H522 lung = test system: NCI-H522 lung
NCI-H23 lung = test system: NCI-H23 lung
NCI-H226 lung = test system: NCI-H226 lung
MDA-MB-231 breast = test system: MDA-MB-231 breast
U251 CNS = test system: U251 CNS
MDA-MB-435 = test system: MDA-MB-435
SW-620 colon = test system: SW-620 colon
SNB-75 CNS = test system: SNB-75 CNS
RPMI-8226 leukemia = test system: RPMI-8226 leukemia
MCF7 breast = test system: MCF7 breast
SK-MEL-5 melanoma = test system: SK-MEL-5 melanoma
KM12 colon = test system: KM12 colon
A498 renal = test system: A498 renal
BT-549 breast = test system: BT-549 breast
ACHN renal = test system: ACHN renal
HOP-62 NSCLC = test system: HOP-62 NSCLC

For C=C1C(=O)O[C@H]2[C@H]1CC/C(COC(=O)c1ccc(Br)cc1)=C\CC[C@@]1(C)O[C@@H]21, the GI50 (SK-OV-3 ovarian) was 14800 nM, the TGI (SK-OV-3 ovarian) was 28100 nM and the GI50 (K-562 leukemia) was 1200 nM. For the same compound, the TGI (K-562 leukemia) was 10300 nM, the GI50 (UACC-257 melanoma) was 1650 nM and the TGI (UACC-257 melanoma) was 3350 nM. For the same compound, the GI50 (DU-145 prostate) was 1350 nM, the TGI (DU-145 prostate) was 2650 nM and the GI50 (HT29 colon) was 1130 nM. It also gave a TGI (HT29 colon) of 3430 nM, a GI50 (SN12C renal) of 1630 nM and a TGI (SN12C renal) of 3690 nM. It also gave a GI50 (A549 NSCLC) of 1960 nM, a TGI (A549 NSCLC) of 4560 nM and a GI50 (CCRF-CEM leukemia) of 393 nM. For the same compound, the TGI (CCRF-CEM leukemia) was 7760 nM, the GI50 (786-0 renal) was 1620 nM and the TGI (786-0 renal) was 3090 nM. It also gave a GI50 (NCI-H460 lung) of 1990 nM, a TGI (NCI-H460 lung) of 4300 nM and a GI50 (HCT-116 colon) of 415 nM. It also gave a TGI (HCT-116 colon) of 1580 nM, a GI50 (EKVX NSCLC) of 1760 nM and a TGI (EKVX NSCLC) of 4050 nM. It also gave a GI50 (MOLT-4 leukemia) of 1170 nM, a TGI (MOLT-4 leukemia) of 6060 nM and a GI50 (OVCAR-4 ovarian) of 1570 nM. The TGI (OVCAR-4 ovarian) was 3680 nM, the GI50 (RXF 393 renal) was 1460 nM and the TGI (RXF 393 renal) was 2840 nM. It also gave a GI50 (UO-31 renal) of 1290 nM, a TGI (UO-31 renal) of 2560 nM and a GI50 (HOP-92 NSCLC) of 1720 nM. It also gave a TGI (HOP-92 NSCLC) of 3290 nM, a GI50 (HCC-2998 colon) of 2050 nM and a TGI (HCC-2998 colon) of 4270 nM. It also gave a GI50 (OVCAR-3 ovarian) of 1020 nM, a TGI (OVCAR-3 ovarian) of 2240 nM and a GI50 (SK-MEL-2 melanoma) of 1640 nM. The TGI (SK-MEL-2 melanoma) was 3060 nM, the GI50 (M14 melanoma) was 1470 nM and the TGI (M14 melanoma) was 3200 nM. For the same compound, the GI50 (UACC-62 melanoma) was 1480 nM, the TGI (UACC-62 melanoma) was 2940 nM and the GI50 (SF-268 CNS) was 1550 nM. For the same compound, the TGI (SF-268 CNS) was 3140 nM, the GI50 (SF-539 CNS) was 1500 nM and the TGI (SF-539 CNS) was 2880 nM. It also gave a GI50 (OVCAR-8 ovarian) of 1870 nM, a TGI (OVCAR-8 ovarian) of 5000 nM and a GI50 (PC-3 prostate) of 1690 nM. The TGI (PC-3 prostate) was 3190 nM, the GI50 (SF-295 CNS) was 1670 nM and the TGI (SF-295 CNS) was 3570 nM. It also gave a GI50 (NCI/ADR-RES ovarian) of 2340 nM, a TGI (NCI/ADR-RES ovarian) of 8680 nM and a GI50 (SNB-19 CNS) of 1850 nM. For the same compound, the TGI (SNB-19 CNS) was 4080 nM, the GI50 (HCT-15 colon) was 1100 nM and the TGI (HCT-15 colon) was 3060 nM. It also gave a GI50 (LOX IMVI melanoma) of 797 nM, a TGI (LOX IMVI melanoma) of 2190 nM and a GI50 (HS 578T breast) of 2510 nM. It also gave a TGI (HS 578T breast) of 7640 nM, a GI50 (TK-10 renal) of 1900 nM and a TGI (TK-10 renal) of 3330 nM. It also gave a GI50 (IGROV1 ovarian) of 1270 nM, a TGI (IGROV1 ovarian) of 2830 nM and a GI50 (SK-MEL-28 melanoma) of 1700 nM. It also gave a TGI (SK-MEL-28 melanoma) of 3390 nM, a GI50 (COLO 205 colon) of 1790 nM and a TGI (COLO 205 colon) of 3510 nM. The GI50 (OVCAR-5 ovarian) was 1680 nM, the TGI (OVCAR-5 ovarian) was 3620 nM and the GI50 (SR leukemia) was 343 nM. It also gave a TGI (SR leukemia) of 4750 nM, a GI50 (HL-60(TB) leukemia) of 664 nM and a TGI (HL-60(TB) leukemia) of 3370 nM. It also gave a GI50 (NCI-H522 lung) of 1330 nM, a TGI (NCI-H522 lung) of 2800 nM and a GI50 (NCI-H23 lung) of 1600 nM. It also gave a TGI (NCI-H23 lung) of 3410 nM, a GI50 (NCI-H226 lung) of 2060 nM and a TGI (NCI-H226 lung) of 4570 nM. The GI50 (MDA-MB-231 breast) was 1730 nM, the TGI (MDA-MB-231 breast) was 3510 nM and the GI50 (U251 CNS) was 1550 nM. For the same compound, the TGI (U251 CNS) was 2980 nM, the GI50 (MDA-MB-435) was 1790 nM and the TGI (MDA-MB-435) was 3500 nM. The GI50 (SW-620 colon) was 1080 nM, the TGI (SW-620 colon) was 2870 nM and the GI50 (SNB-75 CNS) was 1160 nM. It also gave a TGI (SNB-75 CNS) of 2410 nM, a GI50 (RPMI-8226 leukemia) of 543 nM and a TGI (RPMI-8226 leukemia) of 3850 nM. The GI50 (MCF7 breast) was 645 nM, the TGI (MCF7 breast) was 2970 nM and the GI50 (SK-MEL-5 melanoma) was 1810 nM. For the same compound, the TGI (SK-MEL-5 melanoma) was 3280 nM, the GI50 (KM12 colon) was 1800 nM and the TGI (KM12 colon) was 3660 nM. For the same compound, the GI50 (A498 renal) was 11000 nM, the TGI (A498 renal) was 23700 nM and the GI50 (BT-549 breast) was 1300 nM. For the same compound, the TGI (BT-549 breast) was 3010 nM, the GI50 (ACHN renal) was 1450 nM and the TGI (ACHN renal) was 2760 nM.

Compound O=C(/C=C(/C=C/c1csc2ccccc12)OB(F)F)/C=C/c1csc2ccccc12 has a GI50 (SK-OV-3 ovarian) of over 50000 nM, a TGI (SK-OV-3 ovarian) of over 50000 nM and a GI50 (A549 NSCLC) of over 50000 nM. For the same compound, the TGI (A549 NSCLC) was over 50000 nM, the GI50 (CCRF-CEM leukemia) was 244 nM and the TGI (CCRF-CEM leukemia) was over 50000 nM. For the same compound, the GI50 (NCI-H460 lung) was over 50000 nM, the TGI (NCI-H460 lung) was over 50000 nM and the GI50 (SF-295 CNS) was over 26200 nM. It also gave a TGI (SF-295 CNS) of over 50000 nM, a GI50 (SNB-19 CNS) of 3620 nM and a TGI (SNB-19 CNS) of over 50000 nM. It also gave a GI50 (HS 578T breast) of 2060 nM, a TGI (HS 578T breast) of over 50000 nM and a GI50 (HOP-62 NSCLC) of over 50000 nM. For the same compound, the TGI (HOP-62 NSCLC) was over 50000 nM, the GI50 (SR leukemia) was 230 nM and the TGI (SR leukemia) was over 50000 nM. The GI50 (NCI-H226 lung) was over 50000 nM, the TGI (NCI-H226 lung) was over 50000 nM and the GI50 (SNB-75 CNS) was 2790 nM. The TGI (SNB-75 CNS) was over 50000 nM, the GI50 (MCF7 breast) was 1060 nM and the TGI (MCF7 breast) was over 50000 nM. It also gave a GI50 (A498 renal) of over 50000 nM and a TGI (A498 renal) of over 50000 nM.
